Source: ChEMBL document CHEMBL1131852, “Synthesis and antitumor activity of water-soluble duocarmycin B1 prodrugs” (Bioorg Med Chem Lett, 1999)
pIC50: −log10 of the molar value.

How the values were obtained:
Colon 26 [1] = experiment: In vivo antitumor activity against Colon 26 […] at dose 0.25 mg/kg; format: functional
[2] = In vivo antitumor activity against Sarcoma 180 at dose 1.0 mg/kg; format: functional, Mus musculus
HeLa [3] = experiment: In vitro anticellular activity against HeLa S3 cells 1 hr after administration of the compound; format: functional, cell-based; details: Homo sapiens
Colon 26 [4] = experiment: In vivo antitumor activity against Colon 26 […] at dose 0.5 mg/kg; format: functional
[5] = In vivo antitumor activity against Sarcoma 180 at dose 0.5 mg/kg; format: functional, Mus musculus
HeLa [6] = experiment: In vitro anticellular activity against HeLa S3 cells 72 hr after administration of the compound; format: functional, cell-based; details: Homo sapiens
Colon 26 [7] = experiment: In vivo antitumor activity against Colon 26 […] at dose 2.0 mg/kg; format: functional
[8] = In vivo antitumor activity against Sarcoma 180 at dose 2.0 mg/kg; format: functional, Mus musculus
Colon 26 [9] = experiment: In vivo antitumor activity against Colon 26 […] at dose 1.0 mg/kg; format: functional
[10] = In vivo antitumor activity against Sarcoma 180 at dose 8.0 mg/kg; format: functional, Mus musculus
[11] = In vivo antitumor activity against Sarcoma 180 at dose 16.0 mg/kg; format: functional, Mus musculus

Structure (SMILES) | T/C (Colon 26 [1]) | T/C [2] | pIC50 (HeLa [3]) | T/C (Colon 26 [4]) | T/C [5] | pIC50 (HeLa [6]) | T/C (Colon 26 [7]) | T/C [8] | T/C (Colon 26 [9]) | T/C [10] | T/C [11]
COC(=O)[C@]1(C)Nc2c(OC(=O)N3CCN(C)CC3)cc3c(c2C1=O)[C@H](CBr)CN3C(=O)c1cc2cc(OC)c(OC)c(OC)c2[nH]1.Cl | 0.37 | 0.13 | 6.77 | 0.13 | 0.26 | 7.82 | – | – | – | – | –
COC(=O)[C@]1(C)Nc2c(OP(=O)(O)O)cc3c(c2C1=O)C[C@H](Br)CN3C(=O)c1cc2cc(OC)c(OC)c(OC)c2[nH]1 | – | 0.29 | 7.40 | – | 0.57 | 8.49 | – | – | – | – | –
COC(=O)[C@]1(C)Nc2c(OC(=O)N3CCN(C)CC3)cc3c(c2C1=O)C[C@H](Br)CN3C(=O)c1cc2cc(OC)c(OC)c(OC)c2[nH]1.Cl | – | 0.19 | 5.70 | – | – | 7.15 | 0.045 | 0.083 | 0.23 | – | –
COC(=O)[C@]1(C)Nc2c(O[C@@H]3OC(CO)[C@@H](O)C(O)[C@@H]3O)cc3c(c2C1=O)C[C@H](Br)CN3C(=O)c1cc2cc(OC)c(OC)c(OC)c2[nH]1 (stereo partly drawn) | – | – | 5.70 | – | – | 6.08 | – | – | – | 0.55 | 0.38
COC(=O)[C@]1(C)Nc2c(O)cc3c(c2C1=O)C[C@H](Br)CN3C(=O)c1cc2cc(OC)c(OC)c(OC)c2[nH]1 | – | – | 9.89 | – | 0.22 | 10.42 | – | – | – | – | –
